Assay results reported in patent US20250129051A1, “PARP1 INHIBITORS AND USES THEREOF” (Gilead Sciences, Inc., priority 2023, published 2025).

What was measured:
Type in all cases: cell-based
DLD-1 BRCA2 (−/−) cells = assay: Cell growth inhibition assay (CellTiter-Glo), DLD-1 BRCA2 (−/−); conditions: Homo sapiens, 168 h, 7 days, CellTiter Glo 2.0
Text: (§1) The objective of this study was to evaluate the effect of a compound disclosed herein on cell proliferation through the cell viability assay in DLD-1 BRCA2 (−/−) and parental isogenic pair and MDA-MB-436 (mutated BRCA1) cell lines. The CellTiter-Glo (CTG) based cell viability assay was designed to determine the number of viable cells in the culture because of compound effect, by quantifying adenosine triphosphate (ATP), which indicates the presence of metabolically active cells.
(§2) DLD-1 BRCA2 (−/−) and parental isogenic pair were cultured in RPMI 1640 supplemented with 10% fetal bovine serum (FBS), and MDA-MB-436 cells were cultured in Dulbecco's Modified Eagle Medium (DMEM) supplemented with 10% FBS. Both were cultured at 37° C. with 5% CO2. Compounds were distributed to the 384 well plate (Corning, 3764) using Echo acoustic liquid handler to form a 1:3 serially diluted final concentration with top dose of 10 or 30 μM. The cells were seeded into the plate in the density of 50 cells/well (DLD-1 parental), 200 cells/well (DLD-1 BRCA2−/−), or 500 cells/well (MDA-MB-436). After a short spin, the cells were cultured in a well moisturized incubator at 37° C. with 5% CO2 for 7 days without disturbance. The cell viability was measured by CellTiter Glo 2.0 assay kit (Promega, G9243), and growth inhibition rate was calculated and plotted against final compound concentration, and the data were fitted in Xfit to generate IC50.

DLD-1 parental cells = assay: Cell growth inhibition assay (CellTiter-Glo), DLD-1 parental; conditions: Homo sapiens, 168 h, 7 days, CellTiter Glo 2.0
Text: as §1, §2

[1] = tested on: MDA-MB-436 (mutated BRCA1) cells; assay: Cell growth inhibition assay (CellTiter-Glo), MDA-MB-436; conditions: Homo sapiens, 168 h; MDA-MB-436 cells, 7 days, CellTiter Glo 2.0
Text: as §1, §2

Row | IC50 (DLD-1 BRCA2 (−/−) cells) [nM] | IC50 [1] [nM] | Compound | IC50 (DLD-1 parental cells) [nM]
1 | 67 | 23 | CNC(=O)c1ccc(O[C@H]2CN(Cc3ccc4nc(C)c(=O)[nH]c4c3F)[C@@H]2C)c(F)n1 [Compound 5, 6-fluoro-5-(((2R,3S)-1-((5-fluoro-2-methyl-3-oxo-3,4-dihydroquinoxalin-6-yl)methyl)-2-methylazetidin-3-yl)oxy)-N-methylpicolinamide] | > 10000
2 | 28 | 8.9 | Cc1nc2ccc(CN3C[C@H](Oc4ccc(C(=O)NC5CC5)nc4F)[C@H]3C)c(F)c2[nH]c1=O [Compound 6, N-cyclopropyl-6-fluoro-5-(((2R,3S)-1-((5-fluoro-2-methyl-3-oxo-3,4-dihydroquinoxalin-6-yl)methyl)-2-methylazetidin-3-yl)oxy) picolinamide] | > 10000
3 | > 1000 | > 1000 | Cc1nc2ccc(CN3C[C@H](Oc4ccc(C#N)nc4F)[C@H]3C)c(F)c2[nH]c1=O [Compound 7, 6-fluoro-5-(((2R,3S)-1-((5-fluoro-2-methyl-3-oxo-3,4-dihydroquinoxalin-6-yl)methyl)-2-methylazetidin-3-yl)oxy) picolinonitrile] | > 10000
